Measurements from patent US20100280125A1, “MEDICINAL AGENT” (priority 2004, published 2010).

Experiments:
[1] = system: human malignant melanoma A 375; assay: replication of melanoma cells in test glasses; format: cell-based; conditions: a week at 37° C. in the dark, in comparison to physiological salt solution
Procedure: In addition, a third control group of test glasses (6 glasses) was formed with the same cancer cell pool and fibroblasts, into which adriamycin and cyclophosphan in the same dilution was introduced, as well as a corresponding test glass group with a physiological salt solution.
After thermostatization of the above-mentioned test glasses for a week at 37° C. (in the dark), the contents were analyzed.

melanoma 16 = format: in vivo, mice; conditions: for mice survived as far as the 36th day: control sub groups of 10 mice, 5 mg in water solution as a drink; for findings during the dissection: first and second sub group of the control group, 5 mg as a drink
Procedure: B57 type mice in the test and control group (60 mice each) were injected with melanoma 16. The test group were divided into 6 sub groups and the control group was divided into 3 sub groups, each with 10 mice.

papillary thyroid cancer = assay: treatment of patient R, papillary thyroid cancer; format: in vivo, human
Procedure: The patient was treated with the medicinal agent (B.V.2) for 2 weeks; one gelatine capsule two times a day with 20 mg medicinal agent perorally after food and enemas in a single dose of 100 ml solution, comprising 50 mg medicinal agent powder, diluted in 2 ml 70% ethyl alcohol and dissolved in 100 ml water solution with 0.9% NaCl.

[2] = system: cancer of the right ovary (recidiv); assay: treatment of patient I, recidiv of ovary cancer; format: in vivo, human
Procedure: Exstirpation of the uterus and the surrounding area on account of cancer of the right ovary was performed on patient I who was […] and had visited the doctor in November 2002. The tomogram that was dated 28 Aug.
The patient was treated with an enema of the rectum: over five days once a day, after five procedures once every other day and thereafter every third day for 15 enemas. They were treated with a single dose of 20 mg medicinal agent (B.V.2) per 15-20 ml water, diluted in 2 ml 70% ethyl alcohol.

[3] = 3 hours after taking the dose, over 7 days

Compound | suppression of the replication of the melanoma cells ([1]; dilution of 10^−7 mmol/l) | suppression of the replication of the melanoma cells ([1]; dilution of 10^−9 mmol/l) | mice survived as far as the 36th day (melanoma 16) | findings during the dissection (melanoma 16) | duration of the dissymmetric effect (papillary thyroid cancer) | ultrasound investigation after the treatment (papillary thyroid cancer; 2 weeks, capsules 20 mg two times a day and enemas 50 mg, growth 5×3×1.7 cm before) | temperature on the left side of the body (dissymmetric effect) (papillary thyroid cancer; [3]) | temperature on the right side of the body (dissymmetric effect) (papillary thyroid cancer; [3]) | growth in control investigation using ultrasound ([2]; 2 Mar. 2004) | erythrocytes ([2]; after the treatment, before 2.5 million) | thrombocytes ([2]; after the treatment, before 110,000) | leucocytes ([2]; after the treatment, before up to 10,000)
COc1cccc2c1C(=O)c1c(O)c3c(c(O)c1C2=O)C[C@@](O)(C(=O)CO)C[C@@H]3O[C@H]1C[C@H](N)[C@H](O)[C@H](C)O1 [adriamycin] | 42% | 30% | 2 mice | lung and liver injuries |  |  |  |  |  |  |  | 
hexamethyl pararosanilin chloride [methyl violet 10B] |  |  |  |  | 1.0 to 1.5 h | a primary growth and no metastases | 37.3-38.6 °C | 35.4-36.9 °C | no longer to be found | 5.5 million | 300,000 | 9,000
O=P1(N(CCCl)CCCl)NCCCO1 (stereo not shown) [cyclophosphan] | 55% | 35% | 5 mice | lung and liver injuries |  |  |  |  |  |  |  | 
